One may read the IC50 as the point on the concentration scale where inhibition reaches its midpoint.

This is an account of results in patent publication US9440930B2, “Substituted bicyclic dihydropyrimidinones and their use as inhibitors of neutrophil elastase activity” (Boehringer Ingelheim International GmbH, priority 2014, dated 2016).

This assay has as its target T1, Human neutrophil elastase (Homo sapiens, UniProt P08246).
T1 construct: purchased Calbiochem 324681
T1 sequence (P08246 30-247 limits assumed): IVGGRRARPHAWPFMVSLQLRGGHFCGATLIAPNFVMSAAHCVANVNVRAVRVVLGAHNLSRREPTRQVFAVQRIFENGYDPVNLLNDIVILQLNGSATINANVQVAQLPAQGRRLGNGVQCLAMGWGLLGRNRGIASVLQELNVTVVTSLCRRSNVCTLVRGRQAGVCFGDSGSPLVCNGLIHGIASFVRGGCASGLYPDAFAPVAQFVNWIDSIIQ
Put plainly: Human Neutrophil Elastase Assay. Type of assay: biochemical. The conditions noted are these: substrate MeOSuc-Ala-Ala-Pro-Val-AMC 250 μM, pH 7.5, room temperature. An excerpt: Human Neutrophil Elastase Assay
Molecule `CN1C(=O)N(c2cccc(C(F)(F)F)c2)C2=C(C(=O)CCC2)C1c1ccc(C#N)cc1CO` (stereo not drawn) [Example 7, 3-Hydroxymethyl-4-[3-methyl-2,5-dioxo-1-(3-trifluoromethyl-phenyl)-1,2,3,4,5,6,7,8-octahydro-quinazolin-4-yl]-benzonitrile] displayed a half-maximal inhibitory concentration (IC50) of 1 nM.
For `CN1C(=O)N(c2cccc(C(F)(F)F)c2)C2=C(C(=O)CCC2)C1c1ccc(C#N)cc1[S+](C)[O-]` (single isomer, unassigned) [Example 2.1B, 3-Methanesulfinyl-4-[3-methyl-2,5-dioxo-1-(3-trifluoromethyl-phenyl)-1,2,3,4,5,6,7,8-octahydro-quinazolin-4-yl]-benzonitrile] the value was 134 nM.
As to `C[S+]([O-])c1cc(C#N)ccc1C1NC(=O)N(c2cccc(C(F)(F)F)c2)C2=C1C(=O)CCC2` (single isomer, unassigned) [Example 1.1, 4-[2,5-Dioxo-1-(3-trifluoromethyl-phenyl)-1,2,3,4,5,6,7,8-octahydro-quinazolin-4-yl]-3-methanesulfinyl-benzonitrile], the half-maximal inhibitory concentration (IC50) stood at 2 nM.
As to `C[S+]([O-])c1cc(C#N)ccc1C1NC(=O)N(c2cccc(C(F)(F)F)c2)C2=C1C(=O)CCC2` (single isomer, unassigned) [Example 1.2, 4-[2,5-Dioxo-1-(3-trifluoromethyl-phenyl)-1,2,3,4,5,6,7,8-octahydro-quinazolin-4-yl]-3-methanesulfinyl-benzonitrile], the IC50 was 4.2 nM.
Regarding `CN1C(=O)N(c2cccc(C(F)(F)F)c2)C2=C(C(=O)CCC2)C1c1ccc(C#N)cc1[S+](C)[O-]` (single isomer, unassigned) [Example 2.1, 3-Methanesulfinyl-4-[3-methyl-2,5-dioxo-1-(3-trifluoromethyl-phenyl)-1,2,3,4,5,6,7,8-octahydro-quinazolin-4-yl]-benzonitrile], the IC50 was less than 1 nM.
In turn, `N#Cc1ccc(C2NC(=O)N(c3cccc(C(F)(F)F)c3)C3=C2C(=O)CCC3)c(S(=O)(=O)CCCO)c1` (stereo not drawn) [Example 4.1] yielded an IC50 of 5.6 nM.
Take `CNC(=O)N1C(=O)N(c2cccc(C(F)(F)F)c2)C2=C(C(=O)CCC2)C1c1ccc(C#N)cc1[S+](C)[O-]` (single isomer, unassigned) [Example 3.1, 4-(4-Cyano-2-methanesulfinyl-phenyl)-2,5-dioxo-1-(3-trifluoromethyl-phenyl)-1,4,5,6,7,8-hexahydro-2H-quinazoline-3-carboxylic acid methylamide]: the IC50 is less than 1 nM.
As to `C[S+]([O-])c1cc(C#N)ccc1C1NC(=O)N(c2cccc(C(F)(F)F)c2)C2=C1C(=O)CCC2` (single isomer, unassigned) [Example 1.1A, 4-[2,5-Dioxo-1-(3-trifluoromethyl-phenyl)-1,2,3,4,5,6,7,8-octahydro-quinazolin-4-yl]-3-methanesulfinyl-benzonitrile], the IC50 is less than 1 nM.
`C[S+]([O-])c1cc(C#N)ccc1C1NC(=O)N(c2cccc(C(F)(F)F)c2)C2=C1C(=O)CCC2` (single isomer, unassigned) [Example 1.1B, 4-[2,5-Dioxo-1-(3-trifluoromethyl-phenyl)-1,2,3,4,5,6,7,8-octahydro-quinazolin-4-yl]-3-methanesulfinyl-benzonitrile] gave an IC50 of 7.4 nM.
Regarding `COCCS(=O)(=O)c1cc(C#N)ccc1C1NC(=O)N(c2cccc(C(F)(F)F)c2)C2=C1C(=O)CCC2` (stereo not drawn) [Example 4.2], half-maximal inhibition (IC50) required 11 nM.
For `CNC(=O)N1C(=O)N(c2cccc(C(F)(F)F)c2)C2=C(C(=O)CCC2)C1c1ccc(C#N)cc1[S+](C)[O-]` (single isomer, unassigned) [Example 3.2, 4-(4-Cyano-2-methanesulfinyl-phenyl)-2,5-dioxo-1-(3-trifluoromethyl-phenyl)-1,4,5,6,7,8-hexahydro-2H-quinazoline-3-carboxylic acid methylamide] the value was less than 1 nM; for `N#Cc1ccc(C2NC(=O)N(c3cccc(C(F)(F)F)c3)C3=C2C(=O)CCC3)c(S(=O)(=O)CCO)c1` (stereo not drawn) [Example 4, 4-[2,5-Dioxo-1-(3-trifluoromethyl-phenyl)-1,2,3,4,5,6,7,8-octahydro-quinazolin-4-yl]-3-(3-hydroxy-ethane-1-sulfonyl)-benzonitrile], 7 nM.
As for `CN1C(=O)N(c2cccc(C(F)(F)F)c2)C2=C(C(=O)CCC2)C1c1ccc(C#N)cc1[S+](C)[O-]` (single isomer, unassigned) [Example 2.2B, 3-Methanesulfinyl-4-[3-methyl-2,5-dioxo-1-(3-trifluoromethyl-phenyl)-1,2,3,4,5,6,7,8-octahydro-quinazolin-4-yl]-benzonitrile], the figure is 100 nM; as for `CN1C(=O)N(c2cccc(C(F)(F)F)c2)C2=C(C(=O)CCC2)C1c1ccc(C#N)cc1[S+](C)[O-]` (single isomer, unassigned) [Example 2.2, 3-Methanesulfinyl-4-[3-methyl-2,5-dioxo-1-(3-trifluoromethyl-phenyl)-1,2,3,4,5,6,7,8-octahydro-quinazolin-4-yl]-benzonitrile], 1.2 nM.
As for `CS(=O)(=O)c1cc(C#N)ccc1C1C2=C(CCCC2=O)N(c2cccc(C(F)(F)F)c2)C(=O)N1CC1COC1` (single isomer, unassigned) [Example 5B, 3-Methanesulfonyl-4-[3-oxetan-3-ylmethyl-2,5-dioxo-1-(3-trifluoromethyl-phenyl)-1,2,3,4,5,6,7,8-octahydro-quinazolin-4-yl]-benzonitrile], the figure is 157 nM.
